# From patent US20200163897A1, “METHODS OF TREATING LIVER DISEASES ASSOCIATED WITH PORTAL TRACT OR PERIPORTAL INFLAMMATION” (The Regents of the University of California, priority 2017, published 2020)
# What was measured:
# [1] = system: obese individuals with NASH; conditions: 4-12 weeks, no reported change in body mass index; cited from earlier work
# [2] = system: obese children who had steatosis; conditions: after vitamin E 400-1000 IU/day for 4-10 months, cited from earlier work
# tissue transglutaminase = molecular target: T1, tissue transglutaminase (Rattus norvegicus, UniProt Q9WVJ6); conditions: via inhibition of tissue transglutaminase; cited from earlier work
# T1 construct: host or cells: liver of CCl4-treated animals (in vivo)
# T1 sequence (Q9WVJ6 1-686): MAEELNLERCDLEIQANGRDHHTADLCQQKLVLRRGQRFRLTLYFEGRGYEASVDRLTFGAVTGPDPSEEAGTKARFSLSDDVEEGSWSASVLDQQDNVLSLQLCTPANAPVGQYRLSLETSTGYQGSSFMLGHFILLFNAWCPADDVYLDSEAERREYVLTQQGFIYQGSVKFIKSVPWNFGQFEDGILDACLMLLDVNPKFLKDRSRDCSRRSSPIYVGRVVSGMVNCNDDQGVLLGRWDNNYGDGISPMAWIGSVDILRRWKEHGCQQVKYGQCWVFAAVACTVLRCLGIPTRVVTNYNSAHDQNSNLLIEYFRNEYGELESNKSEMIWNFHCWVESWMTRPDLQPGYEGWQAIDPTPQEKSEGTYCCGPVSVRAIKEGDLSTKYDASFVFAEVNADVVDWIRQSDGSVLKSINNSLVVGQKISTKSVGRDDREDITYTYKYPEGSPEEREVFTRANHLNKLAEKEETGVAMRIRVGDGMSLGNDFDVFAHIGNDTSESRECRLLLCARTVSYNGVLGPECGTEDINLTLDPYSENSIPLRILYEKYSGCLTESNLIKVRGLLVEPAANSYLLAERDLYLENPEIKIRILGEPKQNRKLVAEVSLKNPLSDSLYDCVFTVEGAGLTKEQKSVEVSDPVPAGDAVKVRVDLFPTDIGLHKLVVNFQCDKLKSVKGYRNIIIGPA
# children with NASH = conditions: cited from earlier work
# leukocyte cystine = conditions: delivery to the small intestine; cited from earlier work
# [3] = system: acetaminophen-induced hepatocellular injury; conditions: mice and humans; cited from earlier work
# in vivo = experiment: in vivo; design: species or system rats; conditions: rat, 20 mg/kg
# Text: Samples were taken from the portal vein (PV) and jugular vena cava (JVC) in rats that were either pre-treated with or naïve to cysteamine therapy.
# The portal vein delivers blood, and therefore drug, directly to the liver where it diffuses into the periportal region. The concentration of drug in the periportal region is therefore at a maximum level and is higher than the drug concentration in the hepatic lobular region (which drains into the hepatic central veins and then into the JVC). This is possible because as blood, and therefore drug, traverses through the hepatic lobule away from the portal vein its contents will undergo some degree of first-pass metabolism. It is postulated here, that patients with type 2 pediatric NASH, receiving a greater drug exposure at the site of maximal disease (i.e., periportal region; recall Type 2 NASH is characterized by portal inflammation), are more likely to respond to drug therapy than children with type 1 NASH.
compound,measurement,setting,value
CC(=O)N[C@@H](CS)C(=O)O [N-acetylcysteine],aminotransferase levels and gamma-GT,[1],improvement
vitamin E,mean AST levels,"[2]; decreased from 104±61 IU/L, P<0.002",33±11 IU/L
same,mean ALT levels,"[2]; decreased from 175±106 IU/L, P<0.01",40±26 IU/L
NCCSSCCN [Cystamine],liver fibrosis induced by carbon tetrachloride,tissue transglutaminase,ameliorate liver fibrosis
NCCS [cysteamine],"blood liver inflammation markers (ALT, AST, GGT)","children with NASH; children with NASH, 6 and 12 months treatment",statistically significant improvement
same,primary endpoint of improved histology,children with NASH; placebo controlled 12 month study group,not achieved
same,chance of histological improvement compared with the placebo group,"children with NASH; post-hoc analysis, children <65 kg body weight, placebo controlled 12 month study",4 fold
same,"decrease in leukocyte cystine, time after treatment",leukocyte cystine,within an hour
same,prevention of acetaminophen-induced hepatocellular injury,[3],effective
same,Tmax,in vivo,5 to 10 min
